Data taken from paper PMC12638379, “An innovative approach to development of new pyrazolylquinolin-2-one hybrids as dual EGFR and BRAF^V600E inhibitors” (Molecular Diversity, 2025).
Like-named read-outs stand apart in the source and are kept apart here.

Tests used:
EGFR = molecular target: T1, EGFR (Homo sapiens, UniProt P00533); experiment: EGFR inhibitory assay; format: biochemical; conditions: for %inh: EGFR, unit not given
T1 construct: EGFR cytoplasmic domain (EGFR-CD, amino acids 645–1186); His6 (N); made in house; host or cells: Sf-9 insect cells (baculovirus)

NCI 60 cancer cell lines = experiment: NCI anticancer screening over a panel of 60 cancer cells, single concentration 10 µM; format: cell-based, human; conditions: for inhibition at 10 µM: Homo sapiens, read-out: % Growth Inhibition (GI %)
Outline: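 Primary single-dose screen at 10 µM over the NCI panel of 60 human tumour cell lines (leukemia, CNS, lung, colon, kidney, ovary, breast, prostate). The standard NCI Developmental Therapeutics Program protocol was used.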

T1 sequence (P00533 669-1210): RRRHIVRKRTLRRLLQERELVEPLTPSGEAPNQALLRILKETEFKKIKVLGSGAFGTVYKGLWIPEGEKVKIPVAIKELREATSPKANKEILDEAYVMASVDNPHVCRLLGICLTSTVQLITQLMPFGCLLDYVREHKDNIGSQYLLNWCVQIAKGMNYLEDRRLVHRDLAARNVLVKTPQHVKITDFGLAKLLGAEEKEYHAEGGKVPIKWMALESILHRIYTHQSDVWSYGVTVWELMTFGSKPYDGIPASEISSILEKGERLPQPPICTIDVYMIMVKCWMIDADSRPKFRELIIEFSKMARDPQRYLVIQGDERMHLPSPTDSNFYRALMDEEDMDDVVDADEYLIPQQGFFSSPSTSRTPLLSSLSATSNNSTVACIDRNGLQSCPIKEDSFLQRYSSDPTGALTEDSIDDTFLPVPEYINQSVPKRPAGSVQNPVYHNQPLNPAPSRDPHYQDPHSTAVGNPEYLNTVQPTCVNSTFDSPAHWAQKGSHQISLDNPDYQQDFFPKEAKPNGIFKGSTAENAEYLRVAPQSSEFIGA

## C/C(=N\Nc1ccc(S(N)(=O)=O)cc1)c1cnn(-c2cc(=O)[nH]c3ccc(Br)cc23)c1C [Compound 4e, (E)-4-(2-(1-(1-(6-bromo-2-oxo-1,2-dihydroquinolin-4-yl)-5-methyl-1H-pyrazol-4-yl)ethylidene)hydrazineyl)benzenesulfonamide]
EGFR; conc 0.01 (log -2)
  %inh: 37%
EGFR; conc 0.1 (log -1)
  %inh: 50.6%
EGFR; conc 1 (log 0)
  %inh: 75.8%
EGFR; conc 10 (log 1)
  %inh: 88.1%
EGFR; conc 100 (log 2)
  %inh: 94.2%
EGFR; read-out: EGFR inhibition IC50 ± SEM
  IC50: 0.055 ± 0.002 µM
NCI 60 cancer cell lines; 10 µM, over the NCI cancer cell lines
  activity in NCI screening (mean GI%): remarkable activity over the most NCI cancer cell lines
NCI 60 cancer cell lines; 786-0, Renal cancer 786-0, 10 μM
  inhibition at 10 µM: 14.1%
NCI 60 cancer cell lines; A498, Renal cancer A498, 10 μM
  inhibition at 10 µM: < 5%
NCI 60 cancer cell lines; A549, Non-small cell lung cancer A549/ATCC, 10 μM
  inhibition at 10 µM: < 5%
NCI 60 cancer cell lines; ACHN, Renal cancer ACHN, 10 μM
  inhibition at 10 µM: 19%
NCI 60 cancer cell lines; BT-549, Breast cancer BT-549, 10 μM
  inhibition at 10 µM: 62.3%
NCI 60 cancer cell lines; CAKI-1, Renal cancer CAKI-1, 10 μM
  inhibition at 10 µM: 23.3%
NCI 60 cancer cell lines; CCRF-CEM, Leukemia CCRF-CEM, 10 μM
  inhibition at 10 µM: 91.8%
NCI 60 cancer cell lines; COLO 205, Colon cancer COLO 205, 10 μM
  inhibition at 10 µM: 14.5%
NCI 60 cancer cell lines; DU-145, Prostate cancer DU-145, 10 μM
  inhibition at 10 µM: 22.1%
NCI 60 cancer cell lines; EKVX, Non-small cell lung cancer EKVX, 10 μM
  inhibition at 10 µM: 27.9%
NCI 60 cancer cell lines; HCC 2998, Colon cancer HCC-2998, 10 μM
  inhibition at 10 µM: 26.6%
NCI 60 cancer cell lines; HCT-15, Colon cancer HCT-15, 10 μM
  inhibition at 10 µM: 8.8%
NCI 60 cancer cell lines; HCT-116, Colon cancer HCT-116, 10 μM
  inhibition at 10 µM: 41.5%
NCI 60 cancer cell lines; HL-60, Leukemia HL-60(TB), 10 μM
  inhibition at 10 µM: 15.2%
NCI 60 cancer cell lines; HOP-62, Non-small cell lung cancer HOP-62, 10 μM
  inhibition at 10 µM: 36.6%
NCI 60 cancer cell lines; HOP-92, Non-small cell lung cancer HOP-92, 10 μM
  inhibition at 10 µM: 102%
NCI 60 cancer cell lines; HT-29, Colon cancer HT29, 10 μM
  inhibition at 10 µM: < 5%
NCI 60 cancer cell lines; Hs-578T, Breast cancer HS 578T, 10 μM
  inhibition at 10 µM: 71.6%
NCI 60 cancer cell lines; IGROV-1, Ovarian cancer IGROV1, 10 μM
  inhibition at 10 µM: 43%
NCI 60 cancer cell lines; K562, Leukemia K-562, 10 μM
  inhibition at 10 µM: 65%
NCI 60 cancer cell lines; KM12, Colon cancer KM12, 10 μM
  inhibition at 10 µM: 46.3%
NCI 60 cancer cell lines; LOX IMVI, Melanoma LOX IMVI, 10 μM
  inhibition at 10 µM: 61.8%
NCI 60 cancer cell lines; Leukemia SR, 10 μM
  inhibition at 10 µM: 95.9%
NCI 60 cancer cell lines; MCF7, Breast cancer MCF7, 10 μM
  inhibition at 10 µM: 76.8%
NCI 60 cancer cell lines; MDA-MB-231, Breast cancer MDA-MB-231/ATCC, 10 μM
  inhibition at 10 µM: 68.5%
NCI 60 cancer cell lines; MDA-MB-435, Melanoma MDA-MB-435, 10 μM
  inhibition at 10 µM: 95.6%
NCI 60 cancer cell lines; MDA-MB-468, Breast cancer MDA-MB-468, 10 μM
  inhibition at 10 µM: 111%
NCI 60 cancer cell lines; MOLT-4, Leukemia MOLT-4, 10 μM
  inhibition at 10 µM: 81.5%
NCI 60 cancer cell lines; Melanoma M14, 10 μM
  inhibition at 10 µM: 26.9%
NCI 60 cancer cell lines; Melanoma MALM-3M, 10 μM
  inhibition at 10 µM: 78.3%
NCI 60 cancer cell lines; NCI-H23, Non-small cell lung cancer NCI-H23, 10 μM
  inhibition at 10 µM: 30.1%
NCI 60 cancer cell lines; NCI-H226, Non-small cell lung cancer NCI-H226, 10 μM
  inhibition at 10 µM: 37.7%
NCI 60 cancer cell lines; NCI-H322M, Non-small cell lung cancer NCI-H322M, 10 μM
  inhibition at 10 µM: 22.3%
NCI 60 cancer cell lines; NCI-H460, Non-small cell lung cancer NCI-H460, 10 μM
  inhibition at 10 µM: 22.1%
NCI 60 cancer cell lines; NCI-H522, Non-small cell lung cancer NCI-H522, 10 μM
  inhibition at 10 µM: 94.9%
NCI 60 cancer cell lines; NCI/ADR-RES, Ovarian cancer NCI/ADR-RES, 10 μM
  inhibition at 10 µM: 9.87%
NCI 60 cancer cell lines; OVCAR-3, Ovarian cancer OVCAR-3, 10 μM
  inhibition at 10 µM: 43.8%
NCI 60 cancer cell lines; OVCAR-4, Ovarian cancer OVCAR-4, 10 μM
  inhibition at 10 µM: 32.3%
NCI 60 cancer cell lines; OVCAR-5, Ovarian cancer OVCAR-5, 10 μM
  inhibition at 10 µM: 18.6%
NCI 60 cancer cell lines; OVCAR-8, Ovarian cancer OVCAR-8, 10 μM
  inhibition at 10 µM: 19.5%
NCI 60 cancer cell lines; Prostate cancer PC-3, 10 μM
  inhibition at 10 µM: 41.6%
NCI 60 cancer cell lines; RPMI-8226, Leukemia RPMI-8226, 10 μM
  inhibition at 10 µM: 25.7%
